Experimental findings from patent publication US7060822B1, “2-pyrazolin-5-ones” (Abbott GmbH & Co. KG, priority 1999, dated 2006) are described below.

Take `Cc1[nH]c(C=C2C(=O)NN=C2c2cnccn2)c(C)c1CCNCc1ccncc1` [Example 204, 4-{{3,5-Dimethyl-4-[2-(4-pyridylmethylamino)ethyl]pyrrol-2-yl}methylene}-3-pyrazinyl-2-pyrazolin-5-one]: the melting point (in general, the temperature, or range, at which the solid turns liquid) was 203 to 205 °C.

In the case of `CCN(CC)CCc1c(C)[nH]c(C=C2C(=O)NN=C2c2ncccn2)c1C` [Example 206, 4-{[4-(2-Diethylaminoethyl)-3,5-dimethylpyrrol-2-yl]methylene}-3-(2-pyrimidinyl)-2-pyrazolin-5-one], the melting point was in the range of 144 to 146 °C.

Turning to `CCN(CC)CCc1c(C)[nH]c(C=C2C(=O)NN=C2c2cccnn2)c1C` [Example 207, 4-{[4-(2-Diethylaminoethyl)-3,5-dimethylpyrrol-2-yl]methylene}-3-(3-pyridazinyl)-2-pyrazolin-5-one], the melting point is 218 to 220 °C.

`CCN(CC)CCc1c(C)[nH]c(C=C2C(=O)NN=C2c2ccncn2)c1C` [Example 208, 4-{[4-(2-Diethylaminoethyl)-3,5-dimethylpyrrol-2-yl]methylene}-3-(4-pyrimidinyl)-2-pyrazolin-5-one] gave a melting point of 220 °C.

Regarding `CCN(CC)CCc1c(C)[nH]c(C=C2C(=O)NN=C2c2ccnnc2)c1C` [Example 209, 4-{[4-(2-Diethylaminoethyl)-3,5-dimethylpyrrol-2-yl]methylene}-3-(4-pyridazinyl)-2-pyrazolin-5-one], the melting point was in the range of 212 to 216 °C.

In the case of `O=C1NN=C(Cc2ccccc2)C1=Cc1c[nH]c2ccccc12` [Example 210, 3-Benzyl-4-[(indol-3-yl)methylene]-2-pyrazolin-5-one], the melting point was in the range of 292 to 295 °C.

`O=C1NN=C(Cc2ccccc2)C1=Cc1cn(CCCCO)c2ccccc12` [Example 211, 3-Benzyl-4-{[1-(4-hydroxybutyl)indol-3-yl]methylene}-2-pyrazolin-5-one] showed a melting point of 217 to 220 °C.

The molecule `COc1ccc(OCC2=NNC(=O)C2=Cc2c[nH]c3ccccc23)cc1` [Example 212, 4-[(Indol-3-yl)methylene]-3-(4-methoxyphenyloxymethyl)-2-pyrazolin-5-one] registered a melting point of 266 to 268 °C.

Turning to `O=C1NN=C(COc2ccccc2)C1=Cc1c[nH]c2ccccc12` [Example 213, 4-[(Indol-3-yl)methylene]-3-phenyloxymethyl-2-pyrazolin-5-one], the melting point was in the range of 284 to 286 °C.

`O=C1NN=C(COc2ccc(Cl)cc2)C1=Cc1c[nH]c2ccccc12` [Example 214, 3-(4-Chlorophenyloxymethyl)-4-[(indol-3-yl)methylene]-2-pyrazolin-5-one] returned a melting point of 264 to 267 °C.

In turn, `COc1ccc(CC2=NNC(=O)C2=Cc2c[nH]c3ccccc23)cc1` [Example 215, 4-[(Indol-3-yl)methylene]-3-(4-methoxybenzyl)-2-pyrazolin-5-one] returned a melting point of 265 to 270 °C.

As to `Cc1ccc(OCC2=NNC(=O)C2=Cc2c[nH]c3ccccc23)cc1` [Example 216, 4-[(Indol-3-yl)methylene]-3-(4-methylphenyloxymethyl)-2-pyrazolin-5-one], the melting point lay in the range of 288 to 291 °C.

Molecule `O=C1NN=C(CCc2ccccc2)C1=Cc1c[nH]c2ccccc12` [Example 217, 4-[(Indol-3-yl)methylene]-3-phenylethyl-2-pyrazolin-5-one] came in with a melting point of 268 to 270 °C.

With `Cc1ccc(CC2=NNC(=O)C2=Cc2c[nH]c3ccccc23)cc1` [Example 219, 4-[(Indol-3-yl)methylene]-3-(4-methylbenzyl)-2-pyrazolin-5-one], the melting point lay in the range of 280 to 282 °C.

Turning to `O=C1NN=C(Nc2ccccc2)C1=Cc1c[nH]c2ccccc12` [Example 220, 4-[(Indol-3-yl)methylene]-3-phenylamino-2-pyrazolin-5-one], the melting point fell in the range of 265 to 267 °C.

The molecule `Cc1ccc(NC2=NNC(=O)C2=Cc2c[nH]c3ccccc23)cc1` [Example 221, 4-[(Indol-3-yl)methylene]-3-(4-methylphenylamino)-2-pyrazolin-5-one] came in with a melting point of 255 to 257 °C.

On to `COc1ccc(NC2=NNC(=O)C2=Cc2c[nH]c3ccccc23)cc1` [Example 222, 4-[(Indol-3-yl)methylene]-3-(4-methoxyphenylamino)-2-pyrazolin-5-one], for which the melting point fell in the range of 265 to 267 °C.

In turn, `O=C1NN=C(Cc2ccc(Cl)cc2)C1=Cc1c[nH]c2ccccc12` [Example 223, 3-(4-Chlorobenzyl)-4-[(indol-3-yl)methylene]-2-pyrazolin-5-one] showed a melting point of 274 to 277 °C.

`COc1ccc(CC2=NNC(=O)C2=Cc2cn(CCCCO)c3ccccc23)cc1` [Example 224, 4-{[1-(4-hydroxybutyl)indol-3-yl]methylene}-3-(4-methoxybenzyl)-2-pyrazolin-5-one] had a melting point of 204 to 206 °C.

The molecule `O=C1NN=C(Nc2ccc(Cl)cc2)C1=Cc1c[nH]c2ccccc12` [Example 225, 3-(4-Chlorophenylamino)-4-[(indol-3-yl)methylene]-2-pyrazolin-5-one] returned a melting point of 248 to 250 °C.

`COc1cccc(CC2=NNC(=O)C2=Cc2c[nH]c3ccccc23)c1` [Example 226, 4-[(Indol-3-yl)methylene]-3-(3-methoxybenzyl)-2-pyrazolin-5-one] showed a melting point of 288 to 290 °C.

With `COc1ccc(CC2=NNC(=O)C2=Cc2c[nH]c3ccccc23)cc1OC` [Example 227, 3-(3,4-dimethoxybenzyl)-4-[(indol-3-yl)methylene]-2-pyrazolin-5-one], the melting point fell in the range of 282 to 284 °C.

Take `O=C1NN=C(Cc2ccc(O)cc2)C1=Cc1c[nH]c2ccccc12` [Example 228, 3-(4-hydroxybenzyl)-4-[(indol-3-yl)methylene]-2-pyrazolin-5-one]: the melting point lay within 295 to 300 °C.

As for `O=C1NN=C(COc2cccc(Cl)c2)C1=Cc1c[nH]c2ccccc12` [Example 229, 3-(3-Chlorophenyloxymethyl)-4-[(indol-3-yl)methylene]-2-pyrazolin-5-one], the melting point lay in the range of 265 to 268 °C.

The molecule `O=C1NN=C(c2c[nH]c3ccccc23)C1=Cc1c[nH]c2ccccc12` [Example 230, 3-(Indol-3-yl)-4-[(indol-3-yl)methylene]-2-pyrazolin-5-one] came in with a melting point of 288 to 292 °C.

Molecule `COc1ccc(CCC2=NNC(=O)C2=Cc2c[nH]c3ccccc23)cc1` [Example 231, 4-[(Indol-3-yl)methylene]-3-(4-methoxyphenylethyl)-2-pyrazolin-5-one] had a melting point of 266 to 268 °C.

With `O=C1NN=C(COc2ccc(-c3ccccc3)cc2)C1=Cc1c[nH]c2ccccc12` [Example 232, 4-[(Indol-3-yl)methylene]-3-(4-phenylphenyloxymethyl)-2-pyrazolin-5-one], the melting point fell in the range of 295 to 296 °C.

`CC(CC1=NNC(=O)C1=Cc1c[nH]c2ccccc12)c1ccccc1` (stereo not drawn) [Example 233, 4-[(Indol-3-yl)methylene]-3-(2-phenylpropyl)-2-pyrazolin-5-one] showed a melting point of 253 to 255 °C.

On to `O=C1NN=C(CCCc2ccccc2)C1=Cc1c[nH]c2ccccc12` [Example 234, 4-[(Indol-3-yl)methylene]-3-(3-phenylpropyl)-2-pyrazolin-5-one], for which the melting point is 218 to 220 °C.

`O=C1NN=C(CCc2ccc(O)cc2)C1=Cc1c[nH]c2ccccc12` [Example 235, 3-(4-Hydroxyphenylethyl)-4-[(indol-3-yl)methylene]-2-pyrazolin-5-one] came in with a melting point of 271 to 275 °C.

For `Cc1ccc(CCC2=NNC(=O)C2=Cc2c[nH]c3ccccc23)cc1` [Example 236, 4-[(Indol-3-yl)methylene]-3-(4-methylphenylethyl)-2-pyrazolin-5-one], the melting point was in the range of 244 to 245 °C.

For `CCOC1=NNC(=O)C1=Cc1c[nH]c2ccccc12` [Example 237, 3-Ethoxy-4-[(indol-3-yl)methylene]-2-pyrazolin-5-one], the melting point was 248 to 250 °C.

In the case of `CC(C)OC1=NNC(=O)C1=Cc1cn(CCCCO)c2ccccc12` [Example 238, 4-{[1-(4-Hydroxybutyl)indol-3-yl]methylene}-3-isopropoxy-2-pyrazolin-5-one], the melting point lay in the range of 210 to 212 °C.

`O=C1NN=C(CCc2ccccc2)C1=Cc1cn(CCCCO)c2ccccc12` [Example 239, 4-{[1-(4-Hydroxybutyl)indol-3-yl]methylene}-3-phenylethyl-2-pyrazolin-5-one] registered a melting point of 205 to 207 °C.

In turn, `O=C1NN=C(CCc2ccc([N+](=O)[O-])cc2)C1=Cc1c[nH]c2ccccc12` [Example 240, 4-[(Indol-3-yl)methylene]-3-(4-nitrophenylethyl)-2-pyrazolin-5-one] showed a melting point of 295 to 297 °C.

Molecule `CCCOC1=NNC(=O)C1=Cc1c[nH]c2ccccc12` [Example 241, 4-[(Indol-3-yl)methylene]-3-propoxy-2-pyrazolin-5-one] had a melting point of 246 to 247 °C.

With `O=C1NN=C(Nc2ccc(F)cc2)C1=Cc1c[nH]c2ccccc12` [Example 242, 3-(4-Fluorophenylamino)4-[(indol-3-yl)methylene]--2-pyrazolin-5-one], the melting point was 251 to 252 °C.

`Nc1ccc(CCC2=NNC(=O)C2=Cc2c[nH]c3ccccc23)cc1` [Example 243, 3-(4-Aminophenylethyl)-4-[(indol-3-yl)methylene]-2-pyrazolin-5-one] showed a melting point of 244 to 246 °C.

`Cc1[nH]c2ccccc2c1C=C1C(=O)NN=C1OC(C)C` [Example 244, 3-Isopropoxy-4-[(2-methylindol-3-yl)methylene]-2-pyrazolin-5-one]: the melting point lay within 262 to 264 °C.

Regarding `Cc1cccc2c(C=C3C(=O)NN=C3OC(C)C)c[nH]c12` [Example 245, 3-Isopropoxy-4-[(7-methylindol-3-yl)methylene]-2-pyrazolin-5-one], the melting point was in the range of 254 to 256 °C.

As to `Cc1cccc2c(C=C3C(=O)NN=C3CCc3ccccc3)c[nH]c12` [Example 246, 4-[(7-Methylindol-3-yl)methylene]-3-phenylethyl-2-pyrazolin-5-one], the melting point lay in the range of 302 to 304 °C.

`O=C1NN=C(C2CCCC2)C1=Cc1c[nH]c2ccccc12` [Example 247, 3-Cyclopentyl-4-[(indol-3-yl)methylene]-2-pyrazolin-5-one] yielded a melting point of 277 to 279 °C.
